Results published in ChEMBL document CHEMBL5550205, “Discovery of a NCOA4 Degrader for Labile Iron-Dependent Ferroptosis Inhibition” (J Med Chem, 2024).
pEC50: −log10 of the molar value. Active and inactive are the calls of the source. The calls are words filed in the database; no cut-off is given here. Residues, ends and D or L forms follow the SMILES beside them. *: point of attachment. Cbz = O=C(OCc1ccccc1)*

Columns and labels:
[1] = target: von Hippel-Lindau disease tumor suppressor/Nuclear receptor coactivator 4 (Homo sapiens, UniProt P40337+Q13772); test: PROTAC activity at NCOA4/VHL in human HeLa cells assessed as induction of NCOA4 degradation at 4 uM measured for 24 hrs by immunoprecipitation analysis; type: cell-based
AML12 = test: Protection against CCl4-induced ferroptosis in mouse AML12 cells assessed as cell viability; type: functional, cell-based

Chain of von Hippel-Lindau disease tumor suppressor/Nuclear receptor coactivator 4 (P40337 whole entry, looked up): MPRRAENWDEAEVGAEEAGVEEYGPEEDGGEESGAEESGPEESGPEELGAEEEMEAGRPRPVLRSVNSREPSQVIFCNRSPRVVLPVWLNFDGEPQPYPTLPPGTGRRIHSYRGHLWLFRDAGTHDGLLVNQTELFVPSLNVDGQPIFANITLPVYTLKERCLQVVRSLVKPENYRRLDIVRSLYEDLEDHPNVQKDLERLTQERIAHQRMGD
Chain of von Hippel-Lindau disease tumor suppressor/Nuclear receptor coactivator 4 (Q13772 whole entry, looked up): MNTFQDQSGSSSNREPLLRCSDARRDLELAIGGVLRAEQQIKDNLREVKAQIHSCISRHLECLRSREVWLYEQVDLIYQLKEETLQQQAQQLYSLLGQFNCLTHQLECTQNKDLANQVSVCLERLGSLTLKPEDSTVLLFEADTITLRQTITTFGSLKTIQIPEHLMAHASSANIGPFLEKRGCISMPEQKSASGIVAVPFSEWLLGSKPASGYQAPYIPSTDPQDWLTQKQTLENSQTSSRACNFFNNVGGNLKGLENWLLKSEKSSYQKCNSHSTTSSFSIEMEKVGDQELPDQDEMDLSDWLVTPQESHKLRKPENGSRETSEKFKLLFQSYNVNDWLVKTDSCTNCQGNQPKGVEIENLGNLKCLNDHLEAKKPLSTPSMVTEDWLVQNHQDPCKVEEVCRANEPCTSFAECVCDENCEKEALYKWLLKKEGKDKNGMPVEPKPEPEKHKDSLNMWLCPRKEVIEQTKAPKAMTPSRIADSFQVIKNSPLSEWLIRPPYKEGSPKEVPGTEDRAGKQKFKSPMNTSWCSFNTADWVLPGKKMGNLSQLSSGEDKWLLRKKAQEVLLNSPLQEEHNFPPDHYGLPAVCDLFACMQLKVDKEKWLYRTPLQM

| Activity [1] | SMILES | pEC50 (AML12) |
| --- | --- | --- |
| Active | CC(C)C[C@@H](C=O)NC(=O)[C@H](CC(C)C)NC(=O)[C@H](CC(C)C)NC(=O)OCc1ccccc1 (Cbz-Leu-Leu-Leu-aldehyde) | – |
| – | CCOC(=O)c1ccc(NC2CCCCC2)c(N)c1 | 6.98 |
| – | CC(=O)N(O)CCCCCNC(=O)CCC(=O)N(O)CCCCCNC(=O)CCC(=O)N(O)CCCCCN [DEFEROXAMINE] | 5.05 |
